Experimental data reported in patent US7892312B2, “Nitrification inhibitor and soil improver and fertilizer containing the same” (priority 2005, dated 2011).

System: Nitrosomonas europaea IF014298
Test: in-vitro nitrification bacteria biological luminescence test
Type: cell-based
Experimental: Observation was conducted using in-vitro nitrification bacteria. Explanation is first made of preparation of suspension of the nitrification bacteria used for observation.
The nitrification bacteria (Nitrosomonas europaea IF014298. See Non-Patent Reference 4.) with a bacteria-origin luciferase gene (luxAB) introduced therein was aerobically cultivated in P culture media containing 25 mg/1000 cm^3 of kanamycin at 30° C. for 7-9 days, and after washing, suspended in fresh P culture media, thereby nitrification bacteria suspension was prepared. This nitrification bacteria suspension was kept in the dark place for 30 minutes or longer before experiment.
The composition of P culture media consists of 2.5 g of (NH4)2SO4, 0.7 g of KH2PO4, 13.5 g of Na2HPO4, 0.5 g of NaHCO3, 100 mg of MgSO4-7H2O, 5 mg of CaCl2-2H2O, 1 mg of Fe-EDTA, and 1000 cm^3 of water, and its pH was 8.0.
Nitrification function was evaluated by, after mixing in-vitro the aqueous solution of nitrification bacteria suspension consisting of 0.25 cm^3 of said nitrification bacteria suspension and 0.2 cm^3 of water and 0.01 cm^3 of the sample solution of each Example and Comparative Example, measuring biological luminescence accompanying nitrification reaction during cultivation at 15° C. for 30 minutes using a luminometer (Turner Designs, TD20/20). […] Therefore, the luminescence of the case where a sample solution of each Example and Comparative Example is added to the aqueous solution of nitrification bacteria suspension divided by the luminescence of the case of aqueous bacteria suspension without addition of a sample solution of each Example and Comparative Example was defined as nitrification-inhibitory ratio.
The concentration of sample solutions of each Example and Comparative Example in this case was 20 ppm.
Measurement was conducted as mentioned above with the concentration of sample solutions of each Example and Comparative Example in the aqueous nitrification bacteria suspension varying 0-20 ppm.

[1] = sample concentration 20 ppm, 15° C., 30 minutes

Structure (SMILES)	inhibition of nitrification reaction (in words) (sample concentration 20 ppm)	80% inhibition concentration (concentration at which nitrification-inhibitory ratio was 80%)	nitrification-inhibitory ratio (sample concentration 8 ppm)	nitrification-inhibitory ratio (sample concentration 12 ppm)	nitrification-inhibitory ratio (sample concentration 16 ppm)	nitrification-inhibitory ratio [1]
CCCCC/C=C\C/C=C\C/C=C\C/C=C\CCCC(=O)O [arachidonic acid, reference compound]	not inhibited					
N#CN=C(N)N [dicyandiamide, reference compound]		185 ppm				
CCCCC/C=C\C/C=C\CCCCCCCC(=O)OCC [ethyl linoleate, reference compound]	not inhibited					
CCCCC/C=C\C/C=C\CCCCCCCC(=O)O [linoleic acid]		about 16 ppm	40%	65%	90%	95%
CCCCC/C=C\C/C=C\CCCCCCCC(=O)OC [methyl linoleate]		~8 ppm	80%	90%	92%	95%
CCCCCCCC/C=C\CCCCCCCC(=O)OC [methyl oleate, reference compound]	not inhibited					
CC/C=C\C/C=C\C/C=C\CCCCCCCC(=O)OC [methyl α-linolenate, reference compound]	not inhibited					
Clc1cccc(C(Cl)(Cl)Cl)n1 [nitrapyrin, 2-chloro-6-Trichloromethylpyridine, reference compound]		4 ppm				
CCCCCCCC/C=C\CCCCCCCC(=O)O [oleic acid, reference compound]	not inhibited					
CCCCCCCCCCCCCCCCCC(=O)O [stearic acid, reference compound]	not inhibited					
CC/C=C\C/C=C\C/C=C\CCCCCCCC(=O)O [α-linolenic acid]		~12 ppm	40%	80%	90%	95%
CCCCC/C=C\C/C=C\C/C=C\CCCCC(=O)O [γ-linolenic acid]		about 16 ppm	30%	72%	90%	95%
